The text below walks through data of PubChem BioAssay AID1645871.

What is called Papp is the rate of passage across a membrane or cell layer, normalised by area and donor concentration. The low end stands for slow passage, the high end for fast passage.

The conditions of this data set: pampa; pH 5.0; 30.0 min; 50.0 µM.
In turn, `COc1ccc(-c2noc(CSc3nnc(Cc4ccccc4)n3-c3ccc(F)cc3)n2)cc1` had a Papp of more than 10000 nm/s.

For `COc1ccc(CN2CCNc3cc(Nc4ccccc4)ncc3C2)cc1O`, the Papp worked out at 30.7 nm/s.

The compound `O=S(=O)(Nc1ccc(-c2cccnc2)c2cccnc12)c1cccc(C(F)(F)F)c1` came in with a Papp of more than 10000 nm/s.

`C[C@H]1CN(C(=O)Nc2ccc(F)cc2)C[C@@H]1c1nc(-c2ccccc2)no1` yielded a Papp of 8090 nm/s.

In turn, `Cc1cc(C)cc(C(=O)Nc2ccc3c(N4CCCC4)ncnc3c2)c1` showed a Papp of 5060 nm/s.

The compound `CCC1=Nc2cc(C(=O)NC3CCCC3)ccc2Sc2ccc(Cl)cc21` had a Papp of 6400 nm/s.

Compound `Cc1ccc(CN2CCOC[C@H]2c2ncc(-c3cccc(F)c3)[nH]2)cc1` had a Papp of 9950 nm/s.

In the case of `Cc1nn2c(c1-c1ccccc1-c1ccccc1)N(Cc1ccc(C(=O)O)s1)CCC2`, the Papp amounted to 5230 nm/s.

In turn, `CN(C)c1ccc(-c2cc[nH]c(=O)c2N)cc1` gave a Papp of 1710 nm/s.

With `Cc1nn2c(c1-c1ccccc1-c1ccccc1)N(CCC(C)C)CCC2`, the Papp came out at 3500 nm/s.

In turn, `CCOc1ccc(S(=O)(=O)NCc2cccnc2)cc1NC(=O)c1ccccc1F` returned a Papp of 2780 nm/s.

`O=C(Nc1ccc(Cl)cc1)C(NS(=O)(=O)c1cccs1)c1ccccc1` (stereo unspecified) yielded a Papp of 4430 nm/s.

With `CNc1nc2c(s1)C(c1ccccc1F)CC(=O)N2` (stereo unspecified), the apparent permeability coefficient (Papp) is 603 nm/s.

On to `CCc1cc(Cl)c(OC)c(C(=O)NC[C@@H]2CCCN2CC)c1O`, for which the Papp came to 8990 nm/s.

`CCN(C(=O)C(NS(=O)(=O)c1ccc(Br)s1)c1ccccc1)c1ccc(C)c(C)c1` (stereo unspecified) registered a Papp of 1100 nm/s.

As for `COc1ccc(-c2nc3c(c(SCC(=O)Nc4ccc(C(=O)O)cc4)n2)Cc2ccccc2O3)cc1`, the Papp came out at 366 nm/s.

`Cc1cccc(S(=O)(=O)c2cn(Cc3ccccc3)c3cc(N4CCCC(C)C4)c(F)cc3c2=O)c1` (stereo unspecified) registered a Papp of 8320 nm/s.

Turning to `COc1ccccc1CNS(=O)(=O)c1ccc(-c2cnc(C3CC3)o2)cc1`, the Papp was more than 10000 nm/s.

Consider `CC(C)Oc1ccc(CNC(=O)C2CCN(C(=O)N3CCOc4ccc(Cl)cc43)CC2)cc1`, for which the Papp was found to be 8600 nm/s.

On to `COc1ccc(-n2nc(C3CCN(C(=O)C4CC4)CC3)[nH]c2=O)cc1`, for which the Papp was 1300 nm/s.

Turning to `COc1ccc2[nH]c(S(=O)Cc3ncc(C)c(OC)c3C)nc2n1` (stereo unspecified), the Papp amounted to 498 nm/s.

With `CN(C)c1ccc(CN2CCNc3cc(Nc4ccccc4)ncc3C2)cc1`, the Papp was 1070 nm/s.

For the compound `COc1ccc(-c2ccc3ncc(Nc4ccc(C(N)=O)cc4)n3n2)cc1OC`, the Papp was 818 nm/s.

For the compound `O=C(NC1CC1)C1CCCN1C(=O)c1cccc(-c2ccccn2)c1` (stereo unspecified), the Papp turned out to be 765 nm/s.

`CC/C=C\C/C=C\C/C=C\C/C=C\C/C=C\C/C=C\CCC(=O)NCCO`: the Papp stood at 195 nm/s.

Regarding `CSc1nn(Cc2cccc(C)c2)c(N)c1S(=O)(=O)c1ccccc1`, the apparent permeability (Papp) turned out to be 8780 nm/s.

`CC(C(O)c1ccc(O)cc1)N1CCC(Cc2ccccc2)CC1` (stereo unspecified) gave a Papp of 406 nm/s.

In turn, `CN1CCN(C2=Nc3ccccc3Sc3ccc(Cl)cc32)CC1` returned a Papp of 8870 nm/s.

Regarding `CSc1nnc2c3ccccc3n(CCc3ccccc3)c2n1`, the Papp is more than 10000 nm/s.

`CCC(CC)c1cc([C@H]2CN3CC[C@H]2C[C@@H]3CNC(C)=O)nc(-c2ccncc2)n1` gave a Papp of 149 nm/s.

In the case of `Cc1cc(-c2ccc(C)c(S(=O)(=O)NCC3CCN(Cc4ccc(F)cc4)CC3)c2)on1`, the Papp is 4860 nm/s.

As to `Cc1nn2c(c1-c1ccccc1OCc1ccccc1)N(C(=O)Cc1ccc3c(c1)OCO3)CCC2`, the Papp is more than 10000 nm/s.

In the case of `COc1ccc2c(c1)CN(C(=O)CCN1CCC(Cc3ccccc3)CC1)CCS2`, the Papp was 8070 nm/s.

In turn, `O=C(NCC1CCOCC1)C1CC(=O)N(c2n[nH]c3cc(Br)ccc23)C1` (stereo unspecified) gave a Papp of 106 nm/s.

As for `CCC(Sc1nc2ccccc2c2nc(CCc3c(C)n[nH]c3C)nn12)C(=O)Nc1ccc(F)cc1` (stereo unspecified), the Papp was determined as 2050 nm/s.

Take `Cc1ccc2oc3c(c(=O)c2c1)C(c1cccc(O)c1)N(CCCN1CCOCC1)C3=O` (stereo unspecified): the Papp worked out at 26.2 nm/s.

`CC(C)Oc1ccc(C(=O)Nc2ccc3c(c2)CCCN3C(=O)c2cccs2)cc1`: the Papp was 8000 nm/s.

`CN1CCN(c2ccc(Nc3c4ccccc4nc4ccccc34)cc2)CC1` came in with a Papp of 37.5 nm/s.

`CCS(=O)(=O)c1ncc(N(Cc2ccc(F)cc2)Cc2ccco2)c(C(=O)Nc2cc(C)ccc2C)n1` returned a Papp of 6960 nm/s.

`Cc1ccccc1C(=O)NC1CCN(c2ccc3nnc(C4CC4)n3n2)CC1` gave a Papp of 350 nm/s.

Compound `COc1cc2ncnc(Oc3cccc(NC(=O)Nc4cc(C(C)(C)C(F)(F)F)on4)c3)c2cc1OC` displayed an apparent permeability coefficient (Papp) of 1370 nm/s.

The compound `COc1ccc(S(=O)(=O)N(CC(=O)Nc2ccc(C)cc2)c2ccc(C)cc2)cc1OC` showed a Papp of 6630 nm/s.

In turn, `COc1cc(C(=O)N2CCN(c3cc(Cl)ccc3Cl)CC2)cc(OC)c1OC` showed a Papp of more than 10000 nm/s.

`O=C1CN(C(=O)CCC(=O)N2CCc3c(nc4cc(-c5ccccc5)[nH]n4c3=O)C2)c2ccccc2N1` yielded a Papp of 68.4 nm/s.

As to `COc1ccc(NC(=O)c2cc(-c3ccc[nH]3)n[nH]2)cc1OC`, the Papp is 2030 nm/s.

With `Cc1ccc(Cl)cc1NS(=O)(=O)c1cc2c(cc1F)NC(=O)CC2`, the Papp came to 6170 nm/s.

With `CCOC(=O)C1CCN(c2ncc(-c3ccc4c(c3)OCCCO4)s2)CC1`, the Papp is more than 10000 nm/s.

On to `COc1cc2c(cc1Oc1cccc(N(C)C)c1)NC(=O)C21CCN(c2cnccn2)CC1`, for which the Papp is more than 10000 nm/s.

In turn, `O=c1ncn2nc(Sc3ccc(F)cc3F)ccc2c1-c1c(Cl)cccc1Cl` yielded a Papp of 7930 nm/s.

As for `CC(=O)Nc1ccc(CN2CCc3nc(C(C)C)nc(-c4ccc(Cl)cc4)c3CC2)cc1`, the Papp worked out at 4760 nm/s.

`COc1ccc(CCNc2ncnc3onc(C)c23)c(OC)c1` gave a Papp of 5400 nm/s.

Turning to `C[C@H]1CN(C(=O)c2nn(C)c3ccccc23)C[C@@H]1c1nc(-c2cccnc2)no1`, the Papp stood at 7390 nm/s.

In turn, `CNC(=O)c1ccc(C)c(-n2c(C)cc(OCc3ccc(F)cc3F)c(Br)c2=O)c1` showed a Papp of 6270 nm/s.

Regarding `COc1cc2c(c(OC)c1OC)-c1ccc(OC)c(=O)cc1[C@@H](NC(C)=O)CC2`, the Papp was found to be 45.1 nm/s.

In the case of `CC(C)c1ccc(OCc2nc3c(n2Cc2ccccc2)C(=O)N(CC2CCOCC2)CCN3)cc1`, the Papp amounted to 6430 nm/s.

Take `COc1ccc(-n2nc3c(N4CCCC(C(=O)NCCc5ccc(C)cc5)C4)nnc(C)c3c2C)cc1` (stereo unspecified): the Papp stood at 4670 nm/s.

`Fc1cccc(CN2CCNc3cc(Nc4ccccc4)ncc3C2)c1` showed a Papp of 57.4 nm/s.

As for `CCN(CC)CCCC(C)Nc1cc(/C=C/c2ccccc2Cl)nc2cc(Cl)ccc12` (stereo unspecified), the Papp amounted to 829 nm/s.

On to `CCc1cccc(NC(=O)C(Cc2ccccc2)NS(=O)(=O)c2cccs2)c1` (stereo unspecified), for which the Papp is more than 10000 nm/s.

Compound `c1coc(-c2nc3ccncc3[nH]2)c1` displayed a Papp of 55.6 nm/s.

On to `Cn1c(=O)c2c(-c3ccc(Cl)cc3)n(CCc3ccccc3)cc2n(C)c1=O`, for which the Papp amounted to 7620 nm/s.

For `Cc1c(CN(C)c2cc(C3CC(O)C3)nc(N)n2)[nH]c2ccccc12` (stereo unspecified), the Papp is 448 nm/s.

For `COc1ccc(Cn2c(C(=O)O)c(CNCc3cccc(OC)c3)c3ccc(C)cc32)cc1`, the Papp is 9310 nm/s.

In turn, `c1ccc(Nc2cc3c(cn2)CN(Cc2cccs2)CCN3)cc1` registered a Papp of 1060 nm/s.

In turn, `Cc1noc(C)c1Cc1ccc(C(=O)N2CCc3c(nc4cc(-c5ccccc5)[nH]n4c3=O)C2)o1` registered a Papp of 90.3 nm/s.

Take `O=C(Cc1ccc(O)cc1)N1CC(CNc2ccccc2)C2(C1)CN(c1ccccc1)C2` (stereo unspecified): the Papp stood at 6160 nm/s.
